Test results taken from patent US20100196430A1, “Controlled-released agricultural chemical formulation” (priority 2004, published 2010).
Read-outs that look alike come from different tables or passages of the source.

Assays:
Assay type in all cases: in vivo
[1] = test system: yellow striped flea beetles; test: Test of use as a seed treatment agent by combining with synthetic pyrethroids (rapeseed); settings: Inoculation 18 days after seeding; for No. of plant damage scars/3 plants, Average / No. of plant damage scars/3 plants, Repeat A / No. of plant damage scars/3 plants, Repeat B: 3 days in cage, 500 g of each active per 100 kg of rapeseed seeds; for Control rate: relative to untreated group
Protocol: Wettable powder 2 obtained in Example 20 was dispersed in 2.8 ml of a solution (sticker solution), in which 5% by weight of polyvinyl alcohol (Gohsenol GL05S, Nippon Synthetic Chemical) and 1% by weight of a surfactant in the form of sodium lignin sulfonate ([…] RX-B, Takemoto Oil & Fat) were dissolved in 94% by weight of water, so as to contain […] of acetamiprid, 0.35 ml of this dispersion were placed in a vinyl bag provided with a zipper containing 8 g of rapeseed seeds, immediately after which the zipper was closed followed by mixing by shaking vigorously for 30 seconds to adhere the chemical to the rapeseed seeds. The seeds were then spread out in a thin layer in a vat and air-dried overnight at room temperature to obtain rapeseed seeds adhered with 500 g of acetamiprid per 100 kg of seeds.
1 g of cypermethrin wettable powder (active ingredient: […]) was dispersed in 1.3 ml of distilled water, and 0.65 ml of this dispersion (20 mg as cypermethrin) were placed in a vinyl bag provided with a zipper containing 8 g of rapeseed seeds adhered with 500 g of acetamiprid per 100 kg of seeds, immediately after which the zipper was closed followed by mixing by shaking vigorously for 30 seconds to adhere the chemical to the rapeseed seeds. The seeds were then spread out in a thin layer in a vat and air-dried for 1 to 2 hours at room temperature followed by again placing in a vinyl bag provided with a zipper, adding 0.65 ml of the aforementioned dispersion and repeating the same procedure. These seeds were then spread out in a thin layer in a vat followed by allowing to air dry overnight at room temperature to obtain rapeseed seeds adhered with 500 g of cypermethrin and 500 g of acetamiprid per 100 kg of seeds.
In addition, wettable powder 2 obtained in Example 20 was dispersed in 1.1 g of bifenthrin SC (active ingredient: 7.2% by weight) so as to contain 80 mg of acetamiprid, and 0.55 ml of this dispersion (40 mg as bifenthrin and 40 mg of acetamiprid) were placed in a vinyl bag provided with a zipper containing 8 g of rapeseed seeds, followed immediately by mixing by shaking vigorously for 30 seconds to adhere the chemical to the seeds. The seeds were then spread out in a thin layer in a vat and air-dried overnight at room temperature to obtain rapeseed seeds adhered with 500 g of bifenthrin and 500 g of acetamiprid per 100 kg of seeds.
The resulting seeds were planted in a No. 2 flower pot containing alluvial soil and cultivated in a greenhouse. Eighteen days after seeding, rapeseed seedlings were transferred to a cage in which 100 adult yellow striped flea beetles had been released, and after allowing to stand for 3 days, the number of plant damage scars caused by the adult yellow striped flea beetles was counted for three plants in each test group. For the control, similar tests were carried out in the case of treating with 500 g of wettable powder 2, cypermethrin or bifenthrin alone per 100 kg of seeds, and in the case of non-treatment. Control rate (%)=((no. of scars of untreated group−no. of scars of treated group)/(no. of scars of untreated group))×100.

[2] = test system: yellow striped flea beetles; test: Test of use as a cell tray drench treatment agent (Chinese cabbage); settings: for No. of plant damage scars/4 plants: counted 6 days after release
Protocol: 3.57 g of wettable powder 2 obtained in Example 20 were dispersed in 1 liter of water to prepare a chemical liquid. 0.5 ml of chemical liquid per plant were dropped onto Chinese cabbage seedlings at the 4 to 4.5 leaf stage cultured in cell trays from above using a pipette. On the day following chemical treatment, the treated seedlings were planted in No. 6 flower pots containing Kuroboku soil and cultivated in a greenhouse. Each pot was covered with a cylindrical cage at 2, 14 and 28 days after planting, 10 adult yellow striped flea beetles were released inside the cages, and the numbers of plant damage scars caused by the adult yellow striped flea beetles were counted for four pots in each test group 6 days after releasing the insect pests. For the control, similar tests were carried out in the case of treating with commercially available bifenthrin SC and in the case of non-treatment.

[3] = test system: Nephotettix cincticeps; test: Test of use as a paddy treatment agent by seedling box drench treatment; settings: for mortality at 0.03 ppm / mortality at 0.08 ppm / mortality at 0.12 ppm: Nephotettix cincticeps, soil, read-out: Insect mortality rate
Protocol: Wettable powder 4 obtained in Example 22 was diluted with water to a predetermined concentration to prepare a chemical liquid. 10 ml per tray of the chemical liquid was dropped onto the surface of soil containing seedlings having a height of about 10 cm cultivated in small plastic trays filled with granular planting soil using a pipette. Following chemical treatment, the trays were covered with a cylindrical cage and 6 two-instar Nephotettix cincticeps were released inside followed by counting the number of […] at 3 and 7 days after releasing the insect pests. For the control, similar tests were carried out for the case of treating with imidacloprid, and in the case of non-treatment. The control imidacloprid was sprayed onto the plants after adjusting to 5% by weight in dimethylformamide containing 1.5% by weight of Tween 20 and diluting with water.
Corrected insecticidal rate (%)=((survival rate in untreated group−survival rate in treated group)/survival rate in untreated group)×100

Cc1c(COC(=O)[C@@H]2[C@H](/C=C(\Cl)C(F)(F)F)C2(C)C)cccc1-c1ccccc1 (racemic) [Bifenthrin, bifenthrin]
No. of plant damage scars/3 plants, Average [1]: 270 | No. of plant damage scars/3 plants, Repeat A [1]: 306 | No. of plant damage scars/3 plants, Repeat B [1]: 234 | Control rate [1]: 3.2% | Control rate ([2]; After 2 days): 87.1% | Control rate ([2]; After 14 days): 70.6% | Control rate ([2]; After 28 days): 40.7% | No. of plant damage scars/4 plants ([2]; beetles released After 2 days from planting, 0.5 ml of chemical liquid per plant): 4 | No. of plant damage scars/4 plants ([2]; beetles released After 14 days from planting): 103 | No. of plant damage scars/4 plants ([2]; beetles released After 28 days from planting): 934

O=[N+]([O-])NC1=NCCN1Cc1ccc(Cl)nc1 [Imidacloprid, imidacloprid]
Corrected insecticidal rate ([3]; Concentration 0.03 ppm, After 3 days): 83% | Corrected insecticidal rate ([3]; Concentration 0.03 ppm, After 7 days): 100% | Corrected insecticidal rate ([3]; Concentration 0.08 ppm, After 3 days): 63% | Corrected insecticidal rate ([3]; Concentration 0.08 ppm, After 7 days): 83% | Corrected insecticidal rate ([3]; Concentration 0.12 ppm, After 3 days): 100% | Corrected insecticidal rate ([3]; Concentration 0.12 ppm, After 7 days): 100% | mortality at 0.03 ppm ([3]; 72 h, Concentration 0.03 ppm, After 3 days): 83% | mortality at 0.08 ppm ([3]; 72 h, Concentration 0.08 ppm, After 3 days): 63% | mortality at 0.12 ppm ([3]; 72 h, Concentration 0.12 ppm, After 3 days): 100% | mortality at 0.03 ppm ([3]; 168 h, Concentration 0.03 ppm, After 7 days): 100% | mortality at 0.08 ppm ([3]; 168 h, Concentration 0.08 ppm, After 7 days): 83% | mortality at 0.12 ppm ([3]; 168 h, Concentration 0.12 ppm, After 7 days): 100%

CC1(C)C(C=C(Cl)Cl)C1C(=O)OC(C#N)c1cccc(Oc2ccccc2)c1 (centres unmarked) [Cypermethrin, cypermethrin]
No. of plant damage scars/3 plants, Average [1]: 269 | No. of plant damage scars/3 plants, Repeat A [1]: 296 | No. of plant damage scars/3 plants, Repeat B [1]: 241 | Control rate [1]: 3.6%
